From patent US7098233B2 (priority 2001, dated 2006) come the findings set out here.

By Ki is commonly meant the equilibrium dissociation constant of an inhibitor or competing ligand from its target. Lower therefore signals tighter binding.

Bounds are passed on as bounds.

The target of test [1] is T1, alpha1b adrenergic receptor (Homo sapiens, UniProt P35368).
T1 sequence (P35368 1-520): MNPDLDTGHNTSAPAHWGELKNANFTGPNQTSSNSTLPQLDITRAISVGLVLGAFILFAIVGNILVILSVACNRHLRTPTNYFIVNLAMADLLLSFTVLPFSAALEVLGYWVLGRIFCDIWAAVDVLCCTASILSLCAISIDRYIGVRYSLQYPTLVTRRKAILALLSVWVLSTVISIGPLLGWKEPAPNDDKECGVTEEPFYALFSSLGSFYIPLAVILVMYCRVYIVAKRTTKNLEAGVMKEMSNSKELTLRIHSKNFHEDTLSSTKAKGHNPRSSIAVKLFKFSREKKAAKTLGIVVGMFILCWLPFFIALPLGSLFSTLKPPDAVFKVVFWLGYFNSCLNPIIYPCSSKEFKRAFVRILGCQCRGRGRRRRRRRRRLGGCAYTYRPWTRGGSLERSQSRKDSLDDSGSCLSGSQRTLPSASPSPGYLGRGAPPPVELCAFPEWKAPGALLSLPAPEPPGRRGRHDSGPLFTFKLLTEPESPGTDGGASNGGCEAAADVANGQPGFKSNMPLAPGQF
In words: Receptor panel binding: alpha1b adrenergic. To be noted: for interaction capability for alpha1b receptors lower than for 5-HT6 receptor: alpha1b versus 5-HT6.

A further test has as its target beta1 adrenergic (Homo sapiens, UniProt P08588). The test can be described thus: Receptor panel binding: beta1 adrenergic.
The target in a further test is T2, 5-HT1a (Homo sapiens, UniProt P08908).
T2 sequence (P08908 1-422): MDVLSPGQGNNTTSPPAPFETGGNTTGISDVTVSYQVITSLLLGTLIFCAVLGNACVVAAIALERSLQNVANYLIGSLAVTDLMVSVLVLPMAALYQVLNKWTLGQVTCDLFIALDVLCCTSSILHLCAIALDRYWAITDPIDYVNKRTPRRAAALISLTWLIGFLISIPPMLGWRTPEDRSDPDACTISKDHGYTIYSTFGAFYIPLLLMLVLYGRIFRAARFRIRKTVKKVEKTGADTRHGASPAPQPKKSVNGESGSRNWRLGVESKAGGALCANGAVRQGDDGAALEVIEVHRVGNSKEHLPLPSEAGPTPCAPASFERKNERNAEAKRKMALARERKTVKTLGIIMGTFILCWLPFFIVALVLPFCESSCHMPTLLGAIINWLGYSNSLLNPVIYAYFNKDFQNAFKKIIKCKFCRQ
In words: Binding affinity for serotonin subtype 5-HT1a.

The next test concerns the target 5-HT2a (Homo sapiens, UniProt P28223). The test can be described thus: biochemical. The class given is binding.

Chain of beta1 adrenergic (P08588 whole entry): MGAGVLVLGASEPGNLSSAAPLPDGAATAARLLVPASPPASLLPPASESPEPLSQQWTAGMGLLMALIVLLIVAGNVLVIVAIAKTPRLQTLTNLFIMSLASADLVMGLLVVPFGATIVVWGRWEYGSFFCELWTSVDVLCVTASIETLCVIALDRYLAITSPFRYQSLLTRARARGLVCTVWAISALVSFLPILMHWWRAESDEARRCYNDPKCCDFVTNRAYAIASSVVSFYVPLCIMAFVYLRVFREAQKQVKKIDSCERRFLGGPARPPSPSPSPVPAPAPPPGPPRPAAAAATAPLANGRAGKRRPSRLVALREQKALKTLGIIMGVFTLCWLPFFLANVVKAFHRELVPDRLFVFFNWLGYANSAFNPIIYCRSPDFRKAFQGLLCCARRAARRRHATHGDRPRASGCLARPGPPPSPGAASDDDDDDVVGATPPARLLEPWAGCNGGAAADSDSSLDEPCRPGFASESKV
Chain of 5-HT2a (P28223 whole entry): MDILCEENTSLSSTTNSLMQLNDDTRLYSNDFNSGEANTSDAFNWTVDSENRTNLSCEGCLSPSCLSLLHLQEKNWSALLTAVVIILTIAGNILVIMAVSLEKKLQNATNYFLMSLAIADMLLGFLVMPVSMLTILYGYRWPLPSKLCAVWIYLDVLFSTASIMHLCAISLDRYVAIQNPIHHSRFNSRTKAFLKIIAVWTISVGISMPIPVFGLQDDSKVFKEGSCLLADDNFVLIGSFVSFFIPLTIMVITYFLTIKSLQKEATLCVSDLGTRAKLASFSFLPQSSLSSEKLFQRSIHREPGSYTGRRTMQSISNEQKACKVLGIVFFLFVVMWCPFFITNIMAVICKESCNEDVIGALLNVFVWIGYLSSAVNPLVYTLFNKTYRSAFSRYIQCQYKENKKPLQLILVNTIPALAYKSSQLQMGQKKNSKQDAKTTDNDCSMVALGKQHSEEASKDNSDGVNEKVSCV

As to `Cc1[nH]c2ccc(Cl)cc2c1CCN(C)C` [ST 1936, 5-chloro-2-methyl-N,N-dimethyltryptamine], the Ki was 53 nM in test [1], at least 1000 nM at beta1 adrenergic and over 1000 nM on 5-HT1a. Further, in test [1], the “interaction capability for alpha1b receptors lower than for 5-HT6 receptor” value was “about 2 fold”.
Turning to `CCc1[nH]c2ccc(Cl)cc2c1CCN(C)C` [ST 2253, 5-Chloro-2-ethyl-N,N-dimethyltryptamine], the Ki in test [1] is 69 nM; on 5-HT2a, over 1000 nM; at beta1 adrenergic, at least 1000 nM; on 5-HT1a it was at least 1000 nM. Also, the “interaction capability for alpha1b receptors lower than for 5-HT6 receptor” value in test [1] is reported as about 3 fold.
